# Test results taken from US20080076824A1, “Compounds That Inhibit Replication Of Human Immunodeficiency Virus” (priority 2004, published 2008).
# Read-outs that look alike come from different tables or passages of the source. Non-standard residues stand in square brackets, D forms with d. Residues, ends and D or L forms follow the SMILES beside them. Sar = CNCC(=O)O
# Key:
# [1] = test system: Herpes simplex virus-1 (KOS); details: HEL; reduces virus-induced cytopathogenicity by 50%
# Vaccinia virus [2] = details: HEL; reduces virus-induced cytopathogenicity by 50%
# [3] = test system: Herpes simplex virus-2 (G); details: HEL; reduces virus-induced cytopathogenicity by 50%
# [4] = test system: Herpes simplex virus-1 TK^− KOS ACV^r; details: HEL; reduces virus-induced cytopathogenicity by 50%
# [5] = test system: Vesicular stomatitis virus; details: HEL; reduces virus-induced cytopathogenicity by 50%
# [6] = Stability of synthetic compounds (no method given); type: physicochemical
# HIV-2 (ROD) = test: microbe, parasite or virus in culture; type: cell-based
# Protocol: Human T-lymphocytic CEM cells (4.5×10^5 cells per ml) were suspended in fresh cell culture medium and infected with HIV-1 (IIIB and NL4.3) or HIV-2 (ROD or EHO) at 100 CCID50 (1 CCID50 being the virus dose infective for 50% of the cell cultures) per ml of cell suspension. Then, 100 μl of the infected cell suspension were transferred to microplate wells, mixed with 100 μl of appropriate (freshly prepared) dilutions of the test compounds (i.e., at final concentrations of […]), and were further incubated at 37° C. After 4 to 5 days, giant cell formation was recorded microscopically in the CEM cell cultures. […] (See Table 1).
# (§1) MT-4, C8166 or CEM cells (4 to 5×10^5 cells per ml) were suspended in fresh culture medium (RPMI-1640 medium supplemented with 10% fetal bovine serum (FBS) (BioWittaker Europe, Verviers, Belgium), 2 mM L-glutamine and […] NaHCO3). Subsequently, the cells were infected with HIV-1 (IIIB) or HIV-2(ROD) at ˜100 CCID50 (1 CCID50 being the dose infective for 50% of the cell cultures) per ml of cell suspension. Then, 100 μl of the infected cell suspension were transferred to 96-well microplate wells, mixed with 100 μl of the appropriate (5-fold) dilutions of the test compounds and further incubated at 37° C. After 4 to 5 days, giant cell formation was recorded microscopically in the CEM and C8166 cell cultures. The MT-4 cell cultures were treated with trypan blue and the number of viable cells was determined.
# HIV-2(ROD) = test: microbe, parasite or virus in culture
# Protocol: as §1
# HIV-1 (IIIB) [7] = test: microbe, parasite or virus in culture; details: Human immunodeficiency virus 1, IIIB
# Protocol: as §1
# in vitro = details: human
# [8] = Cytotoxicity (CC50) in MT-4 cells; type: cell-based; details: human, MT-4 cells
# human PBMC = test: Mitogenic activity assay, [3H]dThd incorporation in human PBMC with or without PHA; type: cell-based; details: concentrations up to 200 μg/ml, absence of PHA
# Protocol: The mitogenic activity assay was conducted as follows. Human PBMC were isolated from buffy coats and brought in RPMI-1640 cell culture medium supplemented with 10% FCS and 2 mM L-glutamine. The cell cultures were exposed to several concentrations of the test compounds for 3 days in the absence or presence of PHA (phytohemagglutinin) (Murex Biotech Ltd., Dartford, UK) at 2 μg/ml. Subsequently, 0.25 μCi [CH3^−3H]dThd was added and, after 20 hr incubation at 37° C., the cells were precipitated in the presence of 10% TCA and the precipitate was washed twice with 10% TCA, twice with 5% TCA and once with 70% ethanol. The precipitate, containing [^3H]DNA, was then examined for radioactivity in a liquid scintillation counter.
# [9] = Cytotoxicity (CC50) in C8166 cells; type: cell-based; details: human, C8166 cells
# HIV-1 (IIIB) [10] = test: microbe, parasite or virus in culture; details: Human immunodeficiency virus 1, IIIB, CCRF-CEM
# HIV (SF2 virus) = test: HIV infectivity assay, SF2-infected H9 cells, reverse transcriptase (RT) quantification in supernatant; type: cell-based
# HIV-1 (NL4.3) = details: read-out: EC50 HIV-1 NL3.4; CEM cell cultures, syncytia formation
# Protocol: (§2) Human T-lymphocytic CEM cells (4.5×10^5 cells per ml) were suspended in fresh cell culture medium and infected with HIV-1 (IIIB and NL4.3) or HIV-2 (ROD or EHO) at 100 CCID50 (1 CCID50 being the virus dose infective for 50% of the cell cultures) per ml of cell suspension. Then, 100 μl of the infected cell suspension were transferred to microplate wells, mixed with 100 μl of appropriate (freshly prepared) dilutions of the test compounds (i.e., at final concentrations of […]), and were further incubated at 37° C. After 4 to 5 days, giant cell formation was recorded microscopically in the CEM cell cultures.
# HIV-2 (EHO) = test system: HIV-2 (EHO)
# Protocol: as §2
# HIV-1 (IIIB) [11] = details: read-out: EC50 HIV-1 IIIB; CEM cell cultures, syncytia formation, Table 1
# [12] = test system: Herpes simplex virus-1 TK^− KOS ACV^r; test: microbe, parasite or virus in culture; details: Human alphaherpesvirus 1, HEL, read-out: Minimum inhibitory concentration Herpes simplex virus-1 TK^− KOS ACV^r
# [13] = test system: Vesicular stomatitis virus; test: microbe, parasite or virus in culture; details: HeLa, read-out: Minimum inhibitory concentration Vesicular stomatitis virus
# Parainfluenza-3 virus = test: organism not typed; details: Vero, read-out: Minimum inhibitory concentration Parainfluenza-3 virus
# Coxsackie virus B4 [14] = test: Antiviral activity in Vero cell cultures, Coxsackie virus B4; type: cell-based; details: Enterovirus B, B4, reduces virus-induced cytopathogenicity by 50%, read-out: Minimum inhibitory concentration Coxsackie virus B4
# Protocol: (§3) The cytotoxicity and antiviral activity of various concentrations of G-NH2 and GPG-NH2 were evaluated in cell cultures that were infected with various types of viruses. Conventional host cell culture, viral infection, and infectivity analysis for each different type of cell and virus were followed. Compounds that were known to inhibit replication of the particular types of viruses analyzed were used as controls.
# Sindbis virus = test: microbe, parasite or virus in culture; details: Vero, read-out: Minimum inhibitory concentration Sindbis virus
# [15] = test system: Respiratory syncytial virus; test: microbe, parasite or virus in culture; details: human respiratory syncytial virus, HeLa, read-out: Minimum inhibitory concentration Respiratory syncytial virus
# [16] = test system: Vesicular stomatitis virus; test: microbe, parasite or virus in culture; details: HEL, read-out: Minimum inhibitory concentration Vesicular stomatitis virus
# [17] = test system: Herpes simplex virus-2 (G); test: microbe, parasite or virus in culture; details: Human alphaherpesvirus 2, HEL, read-out: Minimum inhibitory concentration Herpes simplex virus-2 (G)
# Vaccinia virus [18] = test: microbe, parasite or virus in culture; details: Orthopoxvirus vaccinia, HEL, read-out: Minimum inhibitory concentration Vaccinia virus
# Reovirus-1 = test: organism not typed; details: Vero, read-out: Minimum inhibitory concentration Reovirus-1
# Punta Toro virus = test: microbe, parasite or virus in culture; details: Vero, read-out: Minimum inhibitory concentration Punta Toro virus
# [19] = test system: Herpes simplex virus-1 (KOS); test: microbe, parasite or virus in culture; details: Human alphaherpesvirus 1, HEL, read-out: Minimum inhibitory concentration Herpes simplex virus-1 (KOS)
# Coxsackie virus B4 [20] = test: Antiviral activity in HeLa cell cultures, Coxsackie virus B4; type: cell-based; details: Enterovirus B, B4, reduces virus-induced cytopathogenicity by 50%, read-out: Minimum inhibitory concentration Coxsackie virus B4
# Protocol: as §3
# [21] = Human immunodeficiency virus 2, CCRF-CEM, Table 19, read-out: EC50 (CEM) HIV-2 (ROD)
# [22] = Human immunodeficiency virus 2, C8166, read-out: EC50 (C8166) HIV-2 (ROD), Table 19
# [23] = Human immunodeficiency virus 2, C8166, read-out: EC50 (C8166) HIV-2 (ROD), Table 20
# [24] = Human immunodeficiency virus 2, MT4, read-out: EC50 (MT-4) HIV-2 (ROD), Table 19
# [25] = Human immunodeficiency virus 2, MT4, read-out: EC50 (MT-4) HIV-2 (ROD), Table 20
# [26] = C8166, read-out: EC50 (C8166) HIV-1 (IIIB), Table 19
# [27] = C8166, read-out: EC50 (C8166) HIV-1 (IIIB), Table 20
# [28] = MT4, read-out: EC50 (MT-4) HIV-1 (IIIB)
# [29] = MT4, read-out: EC50 (MT-4) HIV-1(IIIB)
# [30] = read-out: EC50 (CEM) HIV-1 (IIIB), Table 19
# [31] = read-out: EC50 (CEM) HIV-1(IIIB), Table 20
structure (smiles),measurement,setting,value
"Nc1nc2c(ncn2COCCO)c(=O)[nH]1 [ACG, reference compound]",Minimum inhibitory concentration Herpes simplex virus-1 (KOS),[1],0.0768 mg/L
same,Minimum inhibitory concentration Vaccinia virus,Vaccinia virus [2],>400 mg/L
same,Minimum inhibitory concentration Herpes simplex virus-2 (G),[3],0.0768 mg/L
same,Minimum inhibitory concentration Herpes simplex virus-1 TK^− KOS ACV^r,[4],9.6 mg/L
same,Minimum inhibitory concentration Vesicular stomatitis virus,[5],>400 mg/L
"Nc1nc2c(ncn2COC(CO)CO)c(=O)[nH]1 [DHPG, reference compound]",Minimum inhibitory concentration Herpes simplex virus-1 (KOS),[1],0.0038 mg/L
same,Minimum inhibitory concentration Vaccinia virus,Vaccinia virus [2],60 mg/L
same,Minimum inhibitory concentration Herpes simplex virus-2 (G),[3],0.0192 mg/L
same,Minimum inhibitory concentration Herpes simplex virus-1 TK^− KOS ACV^r,[4],0.48 mg/L
same,Minimum inhibitory concentration Vesicular stomatitis virus,[5],>400 mg/L
"COC(N)C(N)=O (stereo not drawn) [Formula G, alpha-methoxyglycinamide]",stability,[6],more stable than alpha-hydroxyglycinamide
CN1C(=O)C(C)(C)NNC1=S [Formula K],EC50,HIV-2 (ROD); [21],65 ± 18 µM
same,EC50,HIV-2(ROD); [22],> 580 µM
same,EC50,HIV-2(ROD); [23],> 230 µM
same,EC50,HIV-2(ROD); [24],> 580 µM
same,EC50,HIV-2(ROD); [25],> 1000 µM
same,EC50,HIV-1 (IIIB) [7]; [26],346 µM
same,EC50,HIV-1 (IIIB) [7]; [27],289 ± 81 µM
same,EC50,HIV-1 (IIIB) [7]; [28],> 580 µM
same,EC50,HIV-1 (IIIB) [7]; [29],> 1000 µM
same,CC50 at 96 hr,in vitro,≥ 1150 µM
same,CC50,[8],906 ± 179 µM
same,mitogenic activity against human PBMCs,human PBMC,non-mitogenic
same,CC50,[9],896 ± 265 µM
same,EC50,HIV-1 (IIIB) [10]; [30],115 µM
same,EC50,HIV-1 (IIIB) [10]; [31],115 µM
CN1C(=O)C2(CCCCC2)NNC1=S [Formula M],EC50,HIV-2 (ROD); [21],48 ± 14 µM
same,EC50,HIV-2(ROD); [22],480 µM
same,EC50,HIV-2(ROD); [23],> 190 µM
same,EC50,HIV-2(ROD); [24],> 480 µM
same,EC50,HIV-2(ROD); [25],> 900 µM
same,EC50,HIV-1 (IIIB) [7]; [26],> 480 µM
same,EC50,HIV-1 (IIIB) [7]; [27],> 190 µM
same,EC50,HIV-1 (IIIB) [7]; [28],> 480 µM
same,EC50,HIV-1 (IIIB) [7]; [29],> 900 µM
same,CC50 at 96 hr,in vitro,≥ 930 µM
same,CC50,[8],455 ± 4.6 µM
same,mitogenic activity against human PBMCs,human PBMC,non-mitogenic
same,CC50,[9],488 ± 3.3 µM
same,EC50,HIV-1 (IIIB) [10]; [30],97 ± 42 µM
same,EC50,HIV-1 (IIIB) [10]; [31],97 ± 42 µM
"CC(C)C(N)C(=O)NC(O)C(N)=O [Formula Y, N-L-Valyl-α-Hydroxyglycinamide]",HIV replication at 25 μM,HIV (SF2 virus); 25 μM,neglible levels
same,IC50,"HIV (SF2 virus); Human immunodeficiency virus 1, H9, 264 h, RT quantification, day 11, read-out: IC50",~16 µM
same,stability,[6],stable
"NC(=O)CC[C@H](N)C(=O)N1CCC[C@H]1C(=O)NCC(N)=O [Q-PG-NH2, glutaminylprolylglycinamide] (H-Gln-Pro-Gly-NH2)",EC50,HIV-2 (ROD); 2 (ROD),89 µM
same,EC50,HIV-1 (NL4.3),265 µM
same,EC50,HIV-2 (EHO),82 µM
same,EC50,in vitro,> 1500 µM
same,EC50,HIV-1 (IIIB) [11],86 µM
NC(=O)c1ncn([C@@H]2O[C@H](CO)[C@@H](O)[C@H]2O)n1 [Ribavirin],EC50,[12],80 mg/L
same,EC50,[13],9.6 mg/L
same,EC50,Parainfluenza-3 virus,48 mg/L
same,EC50,Coxsackie virus B4 [14],> 400 mg/L
same,EC50,Sindbis virus,> 400 mg/L
same,EC50,[15],16 mg/L
same,EC50,[16],> 400 mg/L
same,EC50,[17],> 400 mg/L
same,EC50,Vaccinia virus [18],240 mg/L
same,EC50,Reovirus-1,16 mg/L
same,EC50,Punta Toro virus,48 mg/L
same,EC50,[19],48 mg/L
same,EC50,Coxsackie virus B4 [20],48 mg/L
"CNCC(=O)N1CCC[C@H]1C(=O)NCC(N)=O [SAR-PG-NH2, sarcosinylprolylglycinamide] (H-[Sar]-Pro-Gly-NH2)",EC50,HIV-2 (ROD); 2 (ROD),35 ± 9.8 µM
same,EC50,HIV-1 (NL4.3),49 µM
same,EC50,HIV-2 (EHO),56 µM
same,EC50,in vitro,> 1500 µM
same,EC50,HIV-1 (IIIB) [11],31 ± 4.9 µM
